Reference: article PMC11601618 (bioRxiv, 2024)

T1: chicken BEST1 (bestrophin 1) (Gallus gallus, UniProt A0A8V0ZZU7)
T1 sequence (A0A8V0ZZU7 1-405): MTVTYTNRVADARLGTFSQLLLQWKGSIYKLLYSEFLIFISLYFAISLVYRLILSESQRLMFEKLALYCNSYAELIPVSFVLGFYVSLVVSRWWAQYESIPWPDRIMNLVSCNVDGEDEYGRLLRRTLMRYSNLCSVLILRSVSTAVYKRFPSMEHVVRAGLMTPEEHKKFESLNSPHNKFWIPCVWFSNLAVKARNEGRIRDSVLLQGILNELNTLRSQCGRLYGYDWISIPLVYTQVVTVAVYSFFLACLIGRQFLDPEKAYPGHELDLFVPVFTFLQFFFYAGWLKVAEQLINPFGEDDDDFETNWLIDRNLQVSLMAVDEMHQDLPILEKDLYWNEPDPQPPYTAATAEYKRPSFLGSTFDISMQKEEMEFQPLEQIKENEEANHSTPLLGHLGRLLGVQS


Legend:
[1] = biological target: T1, chicken BEST1 (bestrophin 1); experiment: cryo-EM structure with […] GABA; assay type: biochemical
cryo-EM structure = biological target: the molecule itself; experiment: cryo-EM structure

EC50 [1] [mM]	Molecule	stoichiometry N (cryo-EM structure)
~2	NCCCC(=O)O [GABA]	–
–	human BEST1 (spanning amino acids 1-398) (domain or fragment, UniProt O76090 1-398, looked up) MTITYTSQVANARLGSFSRLLLCWRGSIYKLLYGEFLIFLLCYYIIRFIYRLALTEEQQLMFEKLTLYCDSYIQLIPISFVLGFYVTLVVTRWWNQYENLPWPDRLMSLVSGFVEGKDEQGRLLRRTLIRYANLGNVLILRSVSTAVYKRFPSAQHLVQAGFMTPAEHKQLEKLSLPHNMFWVPWVWFANLSMKAWLGGRIRDPILLQSLLNEMNTLRTQCGHLYAYDWISIPLVYTQVVTVAVYSFFLTCLVGRQFLNPAKAYPGHELDLVVPVFTFLQFFFYVGWLKVAEQLINPFGEDDDDFETNWIVDRNLQVSLLAVDEMHQDLPRMEPDMYWNKPEPQPPYTAASAQFRRASFMGSTFNISLNKEEMEFQPNQEDEEDAHAGIIGRFLGLQS	5
